Results: patent publication US20230107983A1, “COMPOUND ISOLATED FROM TORILIDIS FRUCTUS, AND ANTICANCER PHARMACEUTICAL COMPOSITION CONTAINING SAME AS ACTIVE INGREDIENT” (PHARMA-GENE CO., LTD., priority 2020, published 2023)

Legend:
[1] = system: human lung cancer cells (A549); assay: Nude mouse xenograft model of human lung cancer cells, oral administration; type: in vivo; set-up: Tumor size increase (Vt—V0): unit not given here
Description: Anticancer activity against lung cancer according to the oral administration of Tr-9 was confirmed through a nude mouse xenograft model of human lung cancer cells (A549). Specific pathogen-free (SPF) nude mice of the BALB/C strain were used as the animal model. Animals were bred in the animal room of Daedeok Campus of Hannam University maintained at a temperature of 23±3° C., relative humidity of 55±15%, ventilation frequency of 10-20 times/hr, lighting time of 12 hours(lights on at 8 am and off at 8 pm) and illuminance of 150 to 300 Lux.
(§1) For cancer cell transplantation, all cells were collected and counted on the last day of culture, and the concentration of human lung cancer cell line A549 was adjusted to 5×10^6 cells/ml using PBS. The adjusted cell culture solution was injected subcutaneously into the auxiliary region between the right scapula and chest wall at 0.2 ml (1×10^6 cells/mouse) per mouse.
(§2) The Tr-9 was dissolved in sterile PBS and 1 mM Tr-9 200 µℓ was orally administered per mouse once a day, and all animals were weighed immediately before the start of drug (Tr-9) administration and 10 times in total from day 2 to day 23 after cancer cell transplantation (Table 1).
(§3) In Table 1 above, data values are the mean ± standard deviation. After measuring the body weight, the animals were killed using CO2 gas, and the tumor was separated and the size was measured in 3 directions using a vernier caliper for each animal. Then, the change in tumor size was expressed as a calculated value of (length × width × height)/2 (Table 2).
(§4) Tumor size increase is (Δt)= Vt—Vo, wherein Vt is the value of measuring the tumor size by date, and Vo is the value of measuring the initial tumor size.

[2] = system: human lung cancer cells (A549); assay: Nude mouse xenograft model of human lung cancer cells, intraperitoneal administration; type: in vivo
Description: Anticancer activity against lung cancer according to the intraperitoneal administration of Tr-9 was confirmed through a nude mouse xenograft model of human lung cancer cells (A549). In Example 4, it was carried out using the same animal model and method as the oral administration, except that it was administered intraperitoneally.
Specific pathogen-free (SPF) nude mice of the BALB/C strain were used as the animal model. Animals were bred in the animal room of Daedeok Campus of Hannam University maintained at a temperature of 23±3° C., relative humidity of 55±15%, ventilation frequency of 10-20 times/hr, lighting time of 12 hours(lights on at 8 am and off at 8 pm) and illuminance of 150 to 300 Lux.
as §1
The Tr-9 was dissolved in sterile PBS and 1 mM Tr-9 200 µℓ was intraperitoneally administered per mouse once a day, and all animals were weighed immediately before the start of drug (Tr-9) administration and 10 times in total from day 2 to day 23 after cancer cell transplantation (Table 4).
In Table 4 above, data values are the mean ± standard deviation. After measuring the body weight, the animals were killed using CO2 gas, and the tumor was separated and the size was measured in 3 directions using a vernier caliper for each animal. Then, the change in tumor size was expressed as a calculated value of (length × width × height)/2 (Table 4).
as §4

[3] = Change in mouse weight, A549 xenograft, oral administration; type: in vivo, nude mouse; set-up: Change in mouse weight: unit not given here; conditions: once a day
Description: as §2, §3

## CC(=O)OC(C)(C)C1CC2=C(C)C(=O)CC2C(C)CC1OC(=O)CC(C)C (centres unmarked) [Tr-9]
[1]; oral once a day, Day 0
  Tumor size increase (Vt—V0): 0.0±0.0
[1]; oral once a day, Day 2
  Tumor size increase (Vt—V0): 5.4±1.4
[1]; oral once a day, Day 2, vs control
  Inhibition rate (tumor size increase): 55.4%
[1]; oral once a day, Day 5
  Tumor size increase (Vt—V0): 13.9±6.1
[1]; oral once a day, Day 5, vs control
  Inhibition rate (tumor size increase): 31.5%
[1]; oral once a day, Day 7
  Tumor size increase (Vt—V0): 24.0±14.5
[1]; oral once a day, Day 7, vs control
  Inhibition rate (tumor size increase): 25.9%
[1]; oral once a day, Day 9
  Tumor size increase (Vt—V0): 36.5±12.5
[1]; oral once a day, Day 9, vs control
  Inhibition rate (tumor size increase): 31.3%
[1]; oral once a day, Day 12
  Tumor size increase (Vt—V0): 67.8±25.4
[1]; oral once a day, Day 12, vs control
  Inhibition rate (tumor size increase): 33.5%
[1]; oral once a day, Day 14
  Tumor size increase (Vt—V0): 119.9±37.5
[1]; oral once a day, Day 14, vs control
  Inhibition rate (tumor size increase): 34.1%
[1]; oral once a day, Day 16
  Tumor size increase (Vt—V0): 183.4±85.6
[1]; oral once a day, Day 16, vs control
  Inhibition rate (tumor size increase): 36.8%
[1]; oral once a day, Day 19
  Tumor size increase (Vt—V0): 322.8±71.3
[1]; oral once a day, Day 19, vs control
  Inhibition rate (tumor size increase): 39.0%
[1]; oral once a day, Day 21
  Tumor size increase (Vt—V0): 448.0±131.2
[1]; oral once a day, Day 21, vs control
  Inhibition rate (tumor size increase): 39.2%
[1]; oral once a day, Day 23
  Tumor size increase (Vt—V0): 575.0±159.7
  Tumor weight at Day 23: 0.676 ± 0.185 g
[1]; oral once a day, Day 23, vs control
  Inhibition rate (tumor size increase): 41.4%
[1]; oral, after day 19
  tumor size compared to the control group: statistically significantly smaller
[2]; intraperitoneal
  tumor size further reduced compared to the group intraperitoneally administered with the torilin: about 17%
[2]; intraperitoneal once a day, Day 0, table title: Change in tumor size
  Tumor size increase (Vt−V0): 0.0±0.0
[2]; intraperitoneal once a day, Day 2, table title: Change in tumor size
  Tumor size increase (Vt−V0): 7.0±5.4
[2]; intraperitoneal once a day, Day 2, vs control
  Inhibition rate (tumor size increase): 48.5%
[2]; intraperitoneal once a day, Day 5, table title: Change in tumor size
  Tumor size increase (Vt−V0): 13.8±8.5
[2]; intraperitoneal once a day, Day 5, vs control
  Inhibition rate (tumor size increase): 34.0%
[2]; intraperitoneal once a day, Day 7, table title: Change in tumor size
  Tumor size increase (Vt−V0): 19.6±10.1
[2]; intraperitoneal once a day, Day 7, vs control
  Inhibition rate (tumor size increase): 42.2%
[2]; intraperitoneal once a day, Day 9, table title: Change in tumor size
  Tumor size increase (Vt−V0): 24.4±7.1
[2]; intraperitoneal once a day, Day 9, vs control
  Inhibition rate (tumor size increase): 46.7%
[2]; intraperitoneal once a day, Day 12, table title: Change in tumor size
  Tumor size increase (Vt−V0): 61.1±7.0
[2]; intraperitoneal once a day, Day 12, vs control
  Inhibition rate (tumor size increase): 30.5%
[2]; intraperitoneal once a day, Day 14, table title: Change in tumor size
  Tumor size increase (Vt−V0): 116.4±15.1
[2]; intraperitoneal once a day, Day 14, vs control
  Inhibition rate (tumor size increase): 22.7%
[2]; intraperitoneal once a day, Day 16, table title: Change in tumor size
  Tumor size increase (Vt−V0): 198.3±22.8
[2]; intraperitoneal once a day, Day 16, vs control
  Inhibition rate (tumor size increase): 24.6%
[2]; intraperitoneal once a day, Day 19, table title: Change in tumor size
  Tumor size increase (Vt−V0): 309.2±39.5
[2]; intraperitoneal once a day, Day 19, vs control
  Inhibition rate (tumor size increase): 39.6%
[2]; intraperitoneal once a day, Day 21, table title: Change in tumor size
  Tumor size increase (Vt−V0): 415.2±53.1
[2]; intraperitoneal once a day, Day 21, vs control
  Inhibition rate (tumor size increase): 38.9%
[2]; intraperitoneal once a day, Day 23
  Tumor weight at Day 23: 0.641 ± 0.1 g
[2]; intraperitoneal once a day, Day 23, table title: Change in tumor size
  Tumor size increase (Vt−V0): 531.8±46.5
[2]; intraperitoneal once a day, Day 23, vs control
  Inhibition rate (tumor size increase): 44.2%
[2]; intraperitoneal, after day 19
  tumor size compared to the control group: statistically significantly smaller
[3]; 0 Day after drug treatment
  Change in mouse weight: 100.0 ±0.0
[3]; 2 Days after drug treatment
  Change in mouse weight: 95.6 ±1.7
[3]; 5 Days after drug treatment
  Change in mouse weight: 96.9 ±1.8
[3]; 7 Days after drug treatment
  Change in mouse weight: 99.5 ±1.5
[3]; 9 Days after drug treatment
  Change in mouse weight: 102.3 ±2.8
[3]; 12 Days after drug treatment
  Change in mouse weight: 98.6 ±1.5
[3]; 14 Days after drug treatment
  Change in mouse weight: 100.7 ±3.6
[3]; 16 Days after drug treatment
  Change in mouse weight: 102.5 ±3.8
[3]; 19 Days after drug treatment
  Change in mouse weight: 103.6 ±5.5
[3]; 21 Days after drug treatment
  Change in mouse weight: 102.9 ±5.7
[3]; 23 Days after drug treatment
  Change in mouse weight: 104.7 ±5.6
[3]; day 2 to day 23
  difference in body weight according to the administration of the drugs: almost no difference in body weight
